Results on 13 molecules are retold here after ChEMBL document CHEMBL3871289, “Design, synthesis and antithrombotic evaluation of novel non-peptide thrombin inhibitors” (Bioorg Med Chem, 2017).

Each structure is given as a SMILES string. Active and inactive are the calls of the source. The calls are words filed in the database; no cut-off is given here.

The first assay has as its system Rattus norvegicus. Nature of the assay: Anti-thrombotic activity in intragastrically dosed Sprague-Dawley rat venous thrombosis model assessed as reduction in thrombus weight administered once daily for 3 days measured 2 hrs post last dose. The assay is classed as functional, organism-based.
As for `Cc1nc(C)c(OC(=O)/N=C(\N)c2ccc(CC3NCCn4c3nc3cc(C5(C(=O)N6CCCC6)CCCC5)ccc34)cc2)nc1C` (stereo not drawn), the Activity entry was “Dose-dependent effect”.

For the molecule `CC(C)(C)OC(=O)/N=C(\N)c1ccc(CC2NCCn3c2nc2cc(C4(C(=O)N5CCCC5)CCCC4)ccc23)cc1` (stereo not drawn), the Activity result is “Dose-dependent effect”.

In a further assay the target is Prothrombin (Homo sapiens, UniProt P00734). Nature of the assay: Inhibition of human thrombin assessed as reduction in release of free nitroaniline using tosyl-glycyl-prolyl-arginine-4-nitranilide acetate as substrate preincubated for 10 mins followed by substrate addition by spectrophotometer.
For `CCOC(=O)C1(c2ccc3c(c2)nc2n3CCNC2Cc2ccc(C(=N)N)cc2)CCCC1` (stereo not drawn), the IC50 turned out to be 1.92 µM.

For `N=C(N)c1ccc(CC2NCCn3c2nc2cc(C4(C(=O)N5CCCC5)CCC4)ccc23)cc1` (stereo not drawn), the IC50 was 0.446 µM.

With `N=C(N)c1ccc(CC2NCCn3c2nc2cc(C4(C(=O)N5CCCCC5)CCCC4)ccc23)cc1` (stereo not drawn), the half-maximal inhibitory concentration (IC50) came out at 1.03 µM.

`N=C(N)c1ccc(CC2NCCn3c2nc2cc(C4(C(=O)N5CCCCC5)CC4)ccc23)cc1` (stereo not drawn): the IC50 amounted to 0.437 µM.

On to `CC(C)(C(=O)N1CCCCC1)c1ccc2c(c1)nc1n2CCNC1Cc1ccc(C(=N)N)cc1` (stereo not drawn), for which the IC50 was 1 µM.

With `N=C(N)c1ccc(CC2NCCn3c2nc2cc(C4(C(=O)N5CCCCC5)CCC4)ccc23)cc1` (stereo not drawn), the IC50 was 0.456 µM.

Regarding `CC(C)(C(=O)N1CCCC1)c1ccc2c(c1)nc1n2CCNC1Cc1ccc(C(=N)N)cc1` (stereo not drawn), the half-inhibitory concentration (IC50) was 0.147 µM.

For `N=C(N)c1ccc(CC2NCCn3c2nc2cc(C4(C(=O)N5CCCC5)CCCC4)ccc23)cc1` (stereo not drawn), the IC50 came out at 0.0828 µM.

On to `N=C(N)c1ccc(CC2NCCn3c2nc2cc(C4(C(=O)N5CCCC5)CC4)ccc23)cc1` (stereo not drawn), for which the IC50 was 0.511 µM.

Turning to `CCOC(=O)C(C)(C)c1ccc2c(c1)nc1n2CCNC1Cc1ccc(C(=N)N)cc1` (stereo not drawn), the half-maximal inhibitory concentration (IC50) was determined as 1.44 µM.

The test system of the next assay is Rattus norvegicus. Nature of the assay: Anti-thrombotic activity in Sprague-Dawley rat venous thrombosis model assessed as reduction in thrombus weight at 5 mg/kg, ig administered once daily for 3 days measured 2 hrs post last dose. It is filed as functional, organism-based.
As to `CCCCCCOC(=O)NC(=N)c1ccc(NCc2nc3cc(C(=O)N(CCC(=O)OCC)c4ccccn4)ccc3n2C)cc1`, the outcome was Active.
